Measurements taken from PubChem BioAssay AID330 (DTP/NCI, 2004).
“And” between values parts separate entries of the source, which are not always exact repeats. Equal values may be shown once. Inconclusive results and toxic doses are left out.

Tested on: P388 leukemia ip, CD2F1 mice, survival T/C
Assay: NCI In Vivo Anticancer Drug Screen. Data for tumor model P388 Leukemia (intraperitoneal) in CD2F1 (CDF1) mice
Details: endpoint: median survival time, higher = longer survival
Outline: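 Mice carrying the transplanted tumor received test compound or vehicle. Survival was recorded in each group, and the value is the treated-group measurement divided by that of the vehicle-treated control group.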

[1] = dose: 50.0 mg/kg/injection, schedule: Q01DX005 (ip), vehicle: saline with Tween-80
[2] = dose: 100.0 mg/kg/injection, schedule: Q01DX005 (ip), vehicle: saline with Tween-80
[3] = dose: 200.0 mg/kg/injection, schedule: Q01DX005 (ip), vehicle: saline with Tween-80
[4] = dose: 50.0 mg/kg/injection, schedule: Q04DX003 (ip), vehicle: saline with Tween-80
[5] = dose: 100.0 mg/kg/injection, schedule: Q04DX003 (ip), vehicle: saline with Tween-80
[6] = dose: 200.0 mg/kg/injection, schedule: Q04DX003 (ip), vehicle: saline with Tween-80
[7] = dose: 12.5 mg/kg/injection, schedule: Q01DX005 (ip), vehicle: saline with Tween-80
[8] = dose: 25.0 mg/kg/injection, schedule: Q01DX005 (ip), vehicle: saline with Tween-80
[9] = dose: 50.0 mg/kg/injection, schedule: Q01DX009 (ip), vehicle: saline
[10] = dose: 100.0 mg/kg/injection, schedule: Q01DX009 (ip), vehicle: saline
[11] = dose: 200.0 mg/kg/injection, schedule: Q01DX009 (ip), vehicle: saline
[12] = dose: 12.5 mg/kg/injection, schedule: Q01DX009 (ip), vehicle: saline with Tween-80
[13] = dose: 25.0 mg/kg/injection, schedule: Q01DX009 (ip), vehicle: saline with Tween-80
[14] = dose: 15.0 mg/kg/injection, schedule: Q01DX005 (ip), vehicle: saline with Tween-80
[15] = dose: 100.0 mg/kg/injection, schedule: Q01DX009 (ip), vehicle: saline with Tween-80
[16] = dose: 200.0 mg/kg/injection, schedule: Q01DX009 (ip), vehicle: saline with Tween-80
[17] = dose: 6.25 mg/kg/injection, schedule: Q01DX009 (ip), vehicle: saline with Tween-80
[18] = dose: 60.0 mg/kg/injection, schedule: Q01DX005 (ip), vehicle: saline with Tween-80
[19] = dose: 120.0 mg/kg/injection, schedule: Q01DX005 (ip), vehicle: saline with Tween-80
[20] = dose: 240.0 mg/kg/injection, schedule: Q01DX005 (ip), vehicle: saline with Tween-80
[21] = dose: 50.0 mg/kg/injection, schedule: Q01DX009 (ip), vehicle: saline with Tween-80
[22] = dose: 25.0 mg/kg/injection, schedule: Q04DX003 (ip), vehicle: saline with Tween-80
[23] = dose: 50.0 mg/kg/injection, schedule: Q01DX005 (ip), vehicle: Klucel (hydroxypropylcellulose) (HPC)
[24] = dose: 100.0 mg/kg/injection, schedule: Q01DX005 (ip), vehicle: Klucel (hydroxypropylcellulose) (HPC)

SMILES: CCC(=O)c1ccc(OCC(O)COc2c3ccccc3nc3ccccc23)cc1 (stereo not drawn)
- T/C [1]: 87 % of control
- T/C [2]: 90 % of control
- T/C [3]: 92 % of control

SMILES: COc1cc(C(=O)C[n+]2ccccc2)ccc1O
- T/C [4]: 100 % of control
- T/C [5]: 100 % of control
- T/C [6]: 100 % of control

SMILES: CC(C)CC(=O)CC(c1ccccc1)C(C(=O)/C=C/c1ccccc1)C(C)C (stereo not drawn)
- T/C [7]: 94 % of control
- T/C [8]: 94 % of control
- T/C [1]: 87 % of control and 92 % of control

SMILES: CCN(CC)C1CS(=O)(=O)OC(c2ccccc2)=C1C (stereo not drawn)
- T/C [1]: 100 % of control
- T/C [2]: 102 % of control
- T/C [3]: 100 % of control

SMILES: C=C1C(=O)N2c3ccccc3C(C)(C)C2(S)C(=O)N1C (stereo not drawn)
- T/C [9]: 102 % of control
- T/C [10]: 100 % of control
- T/C [11]: 100 % of control

SMILES: CC(C)N=C(Nc1ccccc1)c1ccccc1
- T/C [12]: 93 % of control
- T/C [13]: 89 % of control
- T/C (dose: 50.0 mg/kg/injection, schedule: Q01DX009 (ip), vehicle: saline + Tween-80 + alcohol): 88 % of control

SMILES: FC(F)(F)c1ccccc1NC(=S)Nc1ccc(I)cc1
- T/C (dose: 50.0 mg/kg/injection, schedule: Q01DX009 (ip), vehicle: gum acacia): 92 % of control
- T/C (dose: 100.0 mg/kg/injection, schedule: Q01DX009 (ip), vehicle: gum acacia): 92 % of control
- T/C (dose: 200.0 mg/kg/injection, schedule: Q01DX009 (ip), vehicle: gum acacia): 89 % of control

SMILES: C1OC1C1CO1 (stereo not drawn)
- T/C (dose: 10.0 mg/kg/injection, schedule: Q04DX003 (ip), vehicle: saline): 113 % of control
- T/C (dose: 13.2 mg/kg/injection, schedule: Q01DX009 (ip), vehicle: saline): 109 % of control
- T/C (dose: 20.0 mg/kg/injection, schedule: Q04DX003 (ip), vehicle: saline): 113 % of control
- T/C (dose: 30.0 mg/kg/injection, schedule: Q01DX009 (ip), vehicle: saline): 118 % of control
- T/C (dose: 40.0 mg/kg/injection, schedule: Q01DX009 (ip), vehicle: saline): 95 % of control
- T/C (dose: 40.0 mg/kg/injection, schedule: Q04DX003 (ip), vehicle: saline): 109 % of control

SMILES: COc1ccc(Br)cc1/C=C/[N+](=O)[O-]
- T/C [12]: 113 % of control
- T/C [13]: 122 % of control

SMILES: CCOP(=O)(OCC)c1nc(Cl)nc(Cl)c1SC(F)(F)F
- T/C (dose: 3.75 mg/kg/injection, schedule: Q01DX005 (ip), vehicle: saline with Tween-80): 113 % of control
- T/C (dose: 7.5 mg/kg/injection, schedule: Q01DX005 (ip), vehicle: saline with Tween-80): 104 % of control
- T/C [14]: 100 % of control

SMILES: COc1cc(CO)c(CO)cc1OC
- T/C (dose: 0.75 mg/kg/injection, schedule: Q01DX005 (ip), vehicle: saline): 93 % of control
- T/C (dose: 1.5 mg/kg/injection, schedule: Q01DX005 (ip), vehicle: saline): 95 % of control
- T/C (dose: 3.0 mg/kg/injection, schedule: Q01DX005 (ip), vehicle: saline): 93 % of control
- T/C (dose: 3.12 mg/kg/injection, schedule: Q01DX005 (ip), vehicle: saline): 98 % of control

SMILES: CCCCCCCC/C=C\CCCCCCCC[N+]1([O-])CCOCC1
- T/C [9]: 102 % of control
- T/C [10]: 116 % of control

SMILES: Cc1ccc(S(=O)(=O)O/N=C(/C#N)c2ccccc2)cc1
- T/C [9]: 101 % of control
- T/C [15]: 102 % of control
- T/C [10]: 99 % of control
- T/C [16]: 101 % of control
- T/C [11]: 105 % of control
- T/C (dose: 400.0 mg/kg/injection, schedule: Q01DX009 (ip), vehicle: saline with Tween-80): 97 % of control

SMILES: Cc1cc(Cl)n[nH]1
- T/C [17]: 108 % of control
- T/C (dose: 12.0 mg/kg/injection, schedule: Q01DX009 (ip), vehicle: saline with Tween-80): 108 % of control
- T/C [13]: 106 % of control

SMILES: CN(C)c1ccc2cc(-n3nnc4cc([N+](=O)[O-])ccc43)c(=O)oc2c1
- T/C [7]: 100 % of control
- T/C [8]: 99 % of control
- T/C [1]: 90 % of control

SMILES: Cc1cccc(CC(C)(O)Cc2cccc(C)n2)n1
- T/C (dose: 50.0 mg/kg/injection, schedule: Q01DX009 (ip), vehicle: other): 100 % of control
- T/C (dose: 100.0 mg/kg/injection, schedule: Q01DX009 (ip), vehicle: other): 100 % of control
- T/C (dose: 200.0 mg/kg/injection, schedule: Q01DX009 (ip), vehicle: other): 122 % of control

SMILES: CCCCCCCCCCCCCCCC(CCCC)CCCCCC (stereo not drawn)
- T/C (dose: 50.0 mg/kg/injection, schedule: Q01DX001 (ip), vehicle: saline sonified): 100 % of control
- T/C (dose: 100.0 mg/kg/injection, schedule: Q01DX001 (ip), vehicle: saline sonified): 100 % of control
- T/C (dose: 200.0 mg/kg/injection, schedule: Q01DX001 (ip), vehicle: saline sonified): 100 % of control

SMILES: NC(N)=NC(=O)COc1ccc(Cl)cc1Cl
- T/C [18]: 97 % of control
- T/C [19]: 103 % of control
- T/C [20]: 114 % of control

SMILES: CCCCNP(=O)(N1CC1CC)N1CC1CC (stereo not drawn)
- T/C [9]: 122 % of control
- T/C [10]: 150 % of control
- T/C [11]: 104 % of control
- T/C (dose: 300.0 mg/kg/injection, schedule: Q04DX003 (ip), vehicle: saline): 195 % of control

SMILES: CC(=O)NC(CSC1(c2ccccc2)c2ccccc2-c2ccccc21)C(=O)O (stereo not drawn)
- T/C (dose: 60.0 mg/kg/injection, schedule: Q01DX005 (ip), vehicle: Klucel (hydroxypropylcellulose) (HPC)): 93 % of control
- T/C (dose: 120.0 mg/kg/injection, schedule: Q01DX005 (ip), vehicle: Klucel (hydroxypropylcellulose) (HPC)): 89 % of control

SMILES: SCc1ccccc1CS
- T/C [21]: 110 % of control and 112 % of control and 114 % of control
- T/C [15]: 110 % of control and 114 % of control and 121 % of control
- T/C [16]: 107 % of control

SMILES: CC(=O)OC1CC(n2cc(C)c(=O)[nH]c2=O)OC1COP(=O)(N1CC1(C)C)N1CC1(C)C (stereo not drawn)
- T/C [22]: 110 % of control
- T/C [6]: 159 % of control

SMILES: CCOC(=O)c1c(C(=O)OCC)c(C)n(/N=N/n2c(C)c(C(=O)OCC)c(C(=O)OCC)c2C)c1C
- T/C [23]: 103 % of control
- T/C [24]: 87 % of control

SMILES: C=C=CC(C)(O)c1ccc(-c2ccccc2)cc1 (stereo not drawn)
- T/C [23]: 97 % of control
- T/C [24]: 100 % of control
- T/C (dose: 200.0 mg/kg/injection, schedule: Q01DX005 (ip), vehicle: Klucel (hydroxypropylcellulose) (HPC)): 104 % of control

SMILES: C[N+](C)(C[Si](C)(C)C)C1CCCCCCCCCCC1
- T/C [14]: 102 % of control

SMILES: O=C1c2ccccc2C(=O)c2c1c([N+](=O)[O-])c1c(c2[N+](=O)[O-])OCO1
- T/C [18]: 86 % of control
- T/C [19]: 86 % of control
- T/C [20]: 96 % of control

SMILES: CCOC(=O)CCCCCOCOC
- T/C (dose: 100.0 mg/kg/injection, schedule: Q01DX001 (ip), vehicle: saline with Tween-80): 106 % of control
- T/C (dose: 200.0 mg/kg/injection, schedule: Q01DX001 (ip), vehicle: saline with Tween-80): 98 % of control
- T/C (dose: 400.0 mg/kg/injection, schedule: Q01DX001 (ip), vehicle: saline with Tween-80): 106 % of control

SMILES: O=C(O)c1cccc(O)c1O
- T/C [10]: 101 % of control and 104 % of control
- T/C [11]: 89 % of control and 96 % of control
- T/C (dose: 600.0 mg/kg/injection, schedule: Q01DX009 (ip), vehicle: saline): 101 % of control and 89 % of control

SMILES: CCN1CNC(=O)NC1
- T/C [9]: 112 % of control
- T/C [10]: 111 % of control
- T/C [11]: 100 % of control
- T/C (dose: 400.0 mg/kg/injection, schedule: Q01DX009 (ip), vehicle: saline): 118 % of control

SMILES: COc1cc2cc3cc(-c4ccc(Cl)cc4)c(N4CCN(C)CC4)nc3nc2cc1OC
- T/C [18]: 94 % of control
- T/C [19]: 101 % of control
- T/C [20]: 111 % of control

SMILES: COc1ccc(Cc2ccc(OC)c(OC)c2)cc1OC
- T/C [22]: 99 % of control
- T/C [4]: 99 % of control
- T/C [5]: 113 % of control
- T/C [6]: 109 % of control
- T/C (dose: 400.0 mg/kg/injection, schedule: Q04DX003 (ip), vehicle: saline with Tween-80): 120 % of control

SMILES: CC(N)C1CCC2C3CC=C4CC(N)CCC4(C)C3CCC12C (stereo not drawn)
- T/C (dose: 10.0 mg/kg/injection, schedule: Q01DX009 (ip), vehicle: saline with Tween-80): 112 % of control
- T/C (dose: 20.0 mg/kg/injection, schedule: Q01DX009 (ip), vehicle: saline with Tween-80): 94 % of control

SMILES: CCOC(=O)SC(=S)OCC
- T/C [17]: 108 % of control
- T/C [12]: 114 % of control
- T/C [13]: 100 % of control
- T/C [21]: 87 % of control
